Counter-ions that a name gives are not always drawn.
target: T1, human mTOR (Homo sapiens, UniProt P42345); assay: Inhibition of mTOR (Example A, LanthaScreen TR-FRET, GFP-4E-BP1 substrate); type: biochemical; conditions: inhibition of human mTOR in the assay of Example A
T1 construct: purchased Invitrogen
Procedure: Example A Inhibition of mTOR
Purified mTOR are purchased from Invitrogen. mTOR activity was determined using Invitrogen's LanthaScreen system. The inhibitory properties of compounds relative to mTOR may be determined using a black 384-well-plate format in the following buffer 50 mM Hepes, 10 mM NaCl, 10 mM MgCl2, 0.2 mM EDTA, 0.01% Brij35, 2 mM DTT at pH7.3. The test compound is prepared in DMSO using 2 fold serial dilutions for 11 data points which are added to the buffer so that each dilution contains 3% DMSO.
An Assay for mTOR Inhibition is as Follows:
Combine in each well 2 μl of 1.2 μM GFP-4E-BP1 (Invitrogen) and 150 μM ATP (in buffer), 2 μl of diluted test compound (3% DMSO in buffer), and 2 μl of 6 nM mTor in buffer. The reaction mixture is then incubated at room temperature for 30 min, and quenched by adding 40 mM ETDA with 4 nM Tb-anti-p4E-BP1 [pThr46] antibody in TR-FRET dilution buffer (Invitrogen). The plate is kept at room temperature for 1 hour and then read using PheraStar (BMG labtech) LanthaScreen mode.
pIC50 values, the negative of the log of the IC50, are calculated by non-linear curve fitting of the compound concentrations and percent of inhibition to the standard pIC50 equation.

| SMILES | IC50 [nM] |
| --- | --- |
| CNC(=O)Nc1ccc(-c2ncc3c(n2)N2CCOCC2(C)C(=O)N3C(C)(C)C(=O)O)cc1 (centres unmarked) [Example 20, 2-methyl-2-(6a-methyl-2-(4-(3-methylureido)phenyl)-6-oxo-6a,7,9,10-tetrahydro-[1,4]oxazino[3,4-h]pteridin-5(6H)-yl)propanoic acid TFA salt] | > 1000 |
| CC12COCCN1c1nc(-c3ccc(NC(=O)NC4CC4)cc3)ncc1N(C1CCOC1)C2=O (centres unmarked) [Example 30, 1-cyclopropyl-3-(4-(6a-methyl-6-oxo-5-(tetrahydrofuran-3-yl)-5,6,6a,7,9,10-hexahydro-[1,4]oxazino[3,4-h]pteridin-2-yl)phenyl)urea] | < 31.6 |
| CNC(=O)Nc1ccc(-c2ncc3c(n2)N2CCOCC2(C)C(=O)N3CC2CC2)cc1 (centres unmarked) [Example 1, 1-(4-(5-(cyclopropylmethyl)-6a-methyl-6-oxo-5,6,6a,7,9,10-hexahydro-[1,4]oxazino[3,4-h]pteridin-2-yl)phenyl)-3-methylurea] | < 31.6 |
| COCCCN1C(=O)[C@]2(C)COCCN2c2nc(-c3ccc(NC(=O)NC4CC4)cc3)ncc21 [Example 41, (S)-1-cyclopropyl-3-(4-(5-(3-methoxypropyl)-6a-methyl-6-oxo-5,6,6a,7,9,10-hexahydro-[1,4]oxazino[3,4-h]pteridin-2-yl)phenyl)urea] | < 31.6 |
| CNC(=O)Nc1ccc(-c2ncc3c(n2)N2CCOC[C@@]2(C)C(=O)N3CC2CC2)cc1 [Example 4, (S)-1-(4-(5-(cyclopropylmethyl)-6a-methyl-6-oxo-5,6,6a,7,9,10-hexahydro-[1,4]oxazino[3,4-h]pteridin-2-yl)phenyl)-3-methylurea] | 31.6 to 1000 |
| CNC(=O)Nc1ccc(-c2ncc3c(n2)N2CCOCC2(C)C(=O)N3Cc2ccn(C)n2)cc1 (centres unmarked) [Example 11, 1-methyl-3-(4-(6a-methyl-5-((1-methyl-1H-pyrazol-3-yl)methyl)-6-oxo-5,6,6a,7,9,10-hexahydro-[1,4]oxazino[3,4-h]pteridin-2-yl)phenyl)urea] | 31.6 to 1000 |
| CNC(=O)Nc1ccc(-c2ncc3c(n2)N2CCOC[C@@]2(C)C(=O)N3CCCOC)cc1 [Example 36, (S)-1-(4-[5-(3-methoxypropyl)-6a-methyl-6-oxo-5,6,6a,7,9,10-hexahydro[1,4]oxazino[3,4-h]pteridin-2-yl]phenyl)-3-methylurea] | < 31.6 |
| C[C@]12COCCN1c1nc(-c3ccc(NC(=O)NC4CC4)cc3)ncc1N(CC(F)(F)F)C2=O [Example 53, (R)-1-cyclopropyl-3-(4-(6a-methyl-6-oxo-5-(2,2,2-trifluoroethyl)-5,6,6a,7,9,10-hexahydro-[1,4]oxazino[3,4-h]pteridin-2-yl)phenyl)urea] | < 31.6 |
| C[C@@]12COCCN1c1nc(-c3ccc(NC(=O)NC4CC4)cc3)ncc1N(CC1CC1)C2=O [Example 9, (S)-1-cyclopropyl-3-(4-(5-(cyclopropylmethyl)-6a-methyl-6-oxo-5,6,6a,7,9,10-hexahydro-[1,4]oxazino[3,4-h]pteridin-2-yl)phenyl)urea] | < 31.6 |
| CNC(=O)Nc1ccc(-c2ncc3c(n2)N2C[C@@H](C)OC[C@]2(C)C(=O)N3CC2CC2)cc1 [Example 19, 1-(4-((6aR,9R)-5-(cyclopropylmethyl)-6a,9-dimethyl-6-oxo-5,6,6a,7,9,10-hexahydro-[1,4]oxazino[3,4-h]pteridin-2-yl)phenyl)-3-methylurea] | 31.6 to 1000 |
| CNC(=O)Nc1ccc(-c2ncc3c(n2)N2CCOC[C@@]2(C)C(=O)N3C[C@H](O)CO)cc1 [Example 23] | 31.6 to 1000 |
| CNC(=O)Nc1ccc(-c2nc(N3CCOCC3)c3c(n2)N2CCOCC2(C)C(=O)N3C)cc1 (centres unmarked) [Example 14, 1-(4-(5,6a-dimethyl-4-morpholino-6-oxo-5,6,6a,7,9,10-hexahydro-[1,4]oxazino[3,4-h]pteridin-2-yl)phenyl)-3-methylurea] | 31.6 to 1000 |
| CNC(=O)Nc1ccc(-c2ncc3c(n2)N2CCOCC2(C)C(=O)N3CCCOC)cc1 (centres unmarked) [Example 35, 1-(4-[5-(3-methoxypropyl)-6a-methyl-6-oxo-5,6,6a,7,9,10-hexahydro[1,4]oxazino[3,4-h]pteridin-2-yl]phenyl)-3-methylurea] | < 31.6 |
| CCNC(=O)Nc1ccc(-c2ncc3c(n2)N2CCOCC2(C)C(=O)N3CC2CC2)cc1 (centres unmarked) [Example 5, 1-(4-(5-(cyclopropylmethyl)-6a-methyl-6-oxo-5,6,6a,7,9,10-hexahydro-[1,4]oxazino[3,4-h]pteridin-2-yl)phenyl)-3-ethylurea, TFA salt] | < 31.6 |
| CNC(=O)Nc1ccc(-c2ncc3c(n2)N2CCOCC2(C)C(=O)N3CC2CCC2)cc1 (centres unmarked) [Example 16, 1-(4-(5-(cyclobutylmethyl)-6a-methyl-6-oxo-5,6,6a,7,9,10-hexahydro-[1,4]oxazino[3,4-h]pteridin-2-yl)phenyl)-3-methylurea] | < 31.6 |
| CNC(=O)Nc1ccc(-c2ncc3c(n2)N2CCOCC2(C)C(=O)N3C[C@H](O)CO)cc1 (stereo partly drawn) [Example 22, 1-(4-(5-((S)-2,3-dihydroxypropyl)-6a-methyl-6-oxo-5,6,6a,7,9,10-hexahydro-[1,4]oxazino[3,4-h]pteridin-2-yl)phenyl)-3-methylurea] | 31.6 to 1000 |
| CNC(=O)Nc1ccc(-c2ncc3c(n2)N2CCOCC2(C)C(=O)N3C2CC2)cc1 (centres unmarked) [Example 17, 1-(4-(5-cyclopropyl-6a-methyl-6-oxo-5,6,6a,7,9,10-hexahydro-[1,4]oxazino[3,4-h]pteridin-2-yl)phenyl)-3-methylurea] | 31.6 to 1000 |
| CNC(=O)Nc1ccc(-c2ncc3c(n2)N2CCOCC2(C)C(=O)N3C(C)C)cc1 (centres unmarked) [Example 15, 1-(4-(5-isopropyl-6a-methyl-6-oxo-5,6,6a,7,9,10-hexahydro-[1,4]oxazino[3,4-h]pteridin-2-yl)phenyl)-3-methylurea] | < 31.6 |
| CNC(=O)Nc1ccc(-c2ncc3c(n2)N2CCOC[C@]2(C)C(=O)N3CC2CC2)cc1 [Example 3, (R)-1-(4-(5-(cyclopropylmethyl)-6a-methyl-6-oxo-5,6,6a,7,9,10-hexahydro-[1,4]oxazino[3,4-h]pteridin-2-yl)phenyl)-3-methylurea] | < 31.6 |
| CC12COCCN1c1nc(-c3ccc(NC(=O)NC4CC4)cc3)ncc1N(C1CCS(=O)(=O)CC1)C2=O (centres unmarked) [Example 45, 1-cyclopropyl-3-(4-[5-(1,1-dioxidotetrahydro-2H-thiopyran-4-yl)-6a-methyl-6-oxo-5,6,6a,7,9,10-hexahydro[1,4]oxazino[3,4-h]pteridin-2-yl]phenyl)urea] | 31.6 to 1000 |
| CC12COCCN1c1nc(-c3ccc(NC(=O)NC4CC4)cc3)ncc1N(CCCS(C)(=O)=O)C2=O (centres unmarked) [Example 46, 1-cyclopropyl-3-(4-(6a-methyl-5-(3-(methylsulfonyl)propyl)-6-oxo-5,6,6a,7,9,10-hexahydro-[1,4]oxazino[3,4-h]pteridin-2-yl)phenyl)urea] | < 31.6 |
| CNC(=O)Nc1ccc(-c2ncc3c(n2)N2CCOC[C@]2(C)C(=O)N3C[C@H](O)CO)cc1 [Example 24] | > 1000 |
| CNC(=O)Nc1ccc(-c2ncc3c(n2)N2CCOC[C@@]2(C)C(=O)N3C2CCOCC2)cc1 [Example 26, (S)-1-methyl-3-(4-(6a-methyl-6-oxo-5-(tetrahydro-2H-pyran-4-yl)-5,6,6a,7,9,10-hexahydro-[1,4]oxazino[3,4-h]pteridin-2-yl)phenyl)urea] | < 31.6 |
| CCNC(=O)Nc1ccc(-c2ncc3c(n2)N2CCOC[C@@]2(C)C(=O)N3CC2CC2)cc1 [Example 7, (S)-1-(4-(5-(cyclopropylmethyl)-6a-methyl-6-oxo-5,6,6a,7,9,10-hexahydro-[1,4]oxazino[3,4-h]pteridin-2-yl)phenyl)-3-ethylurea] | < 31.6 |
| CC12COCCN1c1nc(-c3ccc(NC(=O)NC4CC4)cc3)ncc1N(CC1CC1)C2=O (centres unmarked) [Example 6, 1-cyclopropyl-3-(4-(5-(cyclopropylmethyl)-6a-methyl-6-oxo-5,6,6a,7,9,10-hexahydro-[1,4]oxazino[3,4-h]pteridin-2-yl)phenyl)urea, TFA salt] | 31.6 to 1000 |
| CNC(=O)Nc1ccc(-c2ncc3c(n2)N2CCOCC2(C)C(=O)N3CC(C)(C)C)cc1 (centres unmarked) [Example 28, 1-methyl-3-(4-(6a-methyl-5-neopentyl-6-oxo-5,6,6a,7,9,10-hexahydro-[1,4]oxazino[3,4-h]pteridin-2-yl)phenyl)urea] | < 31.6 |
| CC(F)(F)CN1C(=O)C2(C)COCCN2c2nc(-c3ccc(NC(=O)NC4CC4)cc3)ncc21 (centres unmarked) [Example 47, 1-cyclopropyl-3-(4-(5-(2,2-difluoropropyl)-6a-methyl-6-oxo-5,6,6a,7,9,10-hexahydro-[1,4]oxazino[3,4-h]pteridin-2-yl)phenyl)urea] | < 31.6 |
| CNC(=O)Nc1ccc(-c2ncc3c(n2)N2CCO[C@@H](C)[C@@]2(C)C(=O)N3CC2CC2)cc1 [Example 18, 1-(4-((6aS,7S)-5-(cyclopropylmethyl)-6a,7-dimethyl-6-oxo-5,6,6a,7,9,10-hexahydro-[1,4]oxazino[3,4-h]pteridin-2-yl)phenyl)-3-methylurea] | < 31.6 |
| CC(F)(F)CN1C(=O)[C@]2(C)COCCN2c2nc(-c3ccc(NC(=O)NC4CC4)cc3)ncc21 [Example 49, (S)-1-cyclopropyl-3-(4-(5-(2,2-difluoropropyl)-6a-methyl-6-oxo-5,6,6a,7,9,10-hexahydro-[1,4]oxazino[3,4-h]pteridin-2-yl)phenyl)urea] | < 31.6 |

From US8163755B2, “Hexahydrooxazinopterine compounds” (Takeda Pharmaceutical Company Limited, priority 2009, dated 2012)
